Assay results reported in ChEMBL document CHEMBL3351465, “Discovery of functionalized bisimidazoles bearing cyclic aliphatic-phenyl motifs as HCV NS5A inhibitors” (Bioorg Med Chem Lett, 2014).
In brackets after ≈: the same amount, converted by molar mass.

What was measured:
[1] = Inhibition of NS5A in HCV genotype-1a infected in human HuH7 cells by luciferase reporter gene assay; format: cell-based, Hepatitis C virus subtype 1a; conditions: Hepatitis C virus, Huh-7
[2] = Inhibition of HCV genotype-1a NS5A; set-up: species or system Hepatitis C virus subtype 1a
[3] = Inhibition of NS5A in HCV genotype-1b infected in human HuH7 cells by luciferase reporter gene assay; format: cell-based, Hepatitis C virus subtype 1b; conditions: Hepatitis C virus, Huh-7
[4] = Inhibition of HCV genotype-1b NS5A; set-up: species or system Hepatitis C virus subtype 1b
[5] = Solubility of the compound at pH 7.4 by UV detection method; format: physicochemical; conditions: buffer

| Structure (SMILES) | EC50 [1] [nM] | EC50 [2] [nM] | EC50 [3] [nM] | EC50 [4] [nM] | solubility [5] [µg/mL] |
| --- | --- | --- | --- | --- | --- |
| COC(=O)N[C@@H](C(=O)N1CCC[C@H]1c1ncc(-c2ccc(-c3ccc(-c4cnc([C@@H]5CCCN5C(=O)[C@H](NC(=O)OC)c5ccccc5)[nH]4)cc3)cc2)[nH]1)c1ccccc1 | 0.079 | 0.05 | 0.009 | 0.009 | – |
| COC(=O)N[C@@H](C(=O)N1CCC[C@H]1c1ncc(-c2ccc([C@H]3CC[C@H](c4cnc([C@@H]5CCCN5C(=O)[C@H](NC(=O)OC)c5ccccc5)[nH]4)CC3)cc2)[nH]1)c1ccccc1 | 5.2 | – | 0.061 | – | – |
| COC(=O)N[C@H](C(=O)N1CCC[C@H]1c1ncc(-c2cc(F)c(N3CCC(c4cnc([C@@H]5CCCCN5C(=O)[C@@H](NC(=O)OC)C(C)C)[nH]4)CC3)c(F)c2)[nH]1)C(C)C | 34 | – | 0.09 | – | – |
| CC[C@H](C)[C@H](NC(=O)OC)C(=O)N1CCC[C@H]1c1ncc(-c2ccc([C@H]3CC[C@H](c4cnc([C@@H]5CCCN5C(=O)[C@@H](NC(=O)OC)[C@@H](C)CC)[nH]4)CC3)cc2)[nH]1 | 4.1 | – | 0.05 | – | – |
| COC(=O)N[C@H](C(=O)N[C@@H](C)c1ncc(-c2cc(F)c(N3CCC(c4cnc([C@@H]5CCCN5C(=O)[C@@H](NC(=O)OC)C(C)C)[nH]4)CC3)c(F)c2)[nH]1)C(C)C | 39 | – | 0.27 | – | – |
| COC(=O)N[C@@H](C)C(=O)N1CCC[C@H]1c1ncc(-c2ccc([C@H]3CC[C@H](c4cnc([C@@H]5CCCN5C(=O)[C@H](C)NC(=O)OC)[nH]4)CC3)cc2)[nH]1 | 7.2 | – | 0.33 | – | – |
| COC(=O)N[C@@H](C(=O)N1CCC[C@H]1c1ncc(-c2cc(F)c(N3CCC(c4cnc([C@@H]5CCCN5C(=O)[C@H](NC(=O)OC)c5ccccc5)[nH]4)CC3)c(F)c2)[nH]1)c1ccccc1 | 14 | – | 0.033 | – | – |
| COC(=O)N[C@H](C(=O)N1CCC[C@H]1c1ncc(-c2ccc([C@H]3CC[C@H](c4cnc([C@@H]5CCCN5C(=O)[C@@H](NC(=O)OC)[C@@H](C)OC)[nH]4)CC3)cc2)[nH]1)[C@@H](C)OC | 1.4 | – | 0.19 | – | – |
| COC(=O)N[C@H](C(=O)N1CCC[C@H]1c1ncc(-c2ccc([C@H]3CC[C@H](c4cnc([C@@H]5CCCN5C(=O)[C@H](C(C)C)N(C)C)[nH]4)CC3)cc2)[nH]1)C(C)C | > 100 | – | 0.7 | – | – |
| COC(=O)N[C@H](C(=O)N1CCC[C@H]1c1ncc(-c2cc(F)c(N3CCC(C)(c4cnc([C@@H]5CCCN5C(=O)[C@@H](NC(=O)OC)C(C)C)[nH]4)CC3)c(F)c2)[nH]1)C(C)C | > 100 | – | 0.081 | – | – |
| COC(=O)N[C@H](C(=O)N1CCC[C@H]1c1ncc(-c2cc(F)c(N3CCC(c4cnc([C@@H]5CCCN5C(=O)[C@@H](NC(=O)OC)C(C)C)[nH]4)CC3)c(F)c2)[nH]1)C(C)C | 3.8 | – | 0.054 | – | 87.5 (≈ 112 µM) |
| COC(=O)N[C@H](C(=O)N1CCC[C@H]1c1ncc(-c2ccc([C@H]3CC[C@H](c4cnc([C@@H]5CCCN5C(=O)[C@H](NC(=O)OC)c5ccccc5)[nH]4)CC3)cc2)[nH]1)C(C)C | 2.6 | – | 0.05 | – | – |
| COC(=O)N[C@@H](C(=O)N1CCOC[C@H]1c1ncc(-c2cc(F)c(N3CCC(c4cnc([C@@H]5CCCN5C(=O)[C@H](NC(=O)OC)c5ccccc5)[nH]4)CC3)c(F)c2)[nH]1)c1ccccc1 | 73 | – | 0.04 | – | – |
| COC(=O)N[C@H](C(=O)N1CCC[C@H]1c1ncc(-c2ccc([C@H]3CC[C@H](c4cnc([C@@H]5CCCN5C(=O)[C@@H](c5ccccc5)N(C)C)[nH]4)CC3)cc2)[nH]1)C(C)C | 1.7 | – | 0.14 | – | – |
